Data as given in US6068987A, “Histone deacetylase as target for antiprotozoal agents” (Merck & Co., Inc., priority 1999, dated 2000).

Experiments:
[1] = target: histone deacetylase (chicken liver S100 lysate); assay: Competitive binding assay with 3H-N-desmethoxyapicidin, chick liver S100 lysate; conditions: for IC50: displacement of 3H-N-desmethoxyapicidin, chick liver S100
Protocol: Chick Liver. Livers from 3-5 three week old chickens are collected, rinsed in ice cold phosphate buffered saline (pH 7.4), diced into small pieces and rinsed again 3-4 times with ice cold 50 mM N-2-hydroxyethylpiperazine-N'-2-ethanesulfonic acid (HEPES) (pH 7.4) containing 0.1 mM phenylmethanesulfonyl fluoride (PMSF). The tissue is then resuspended in HEPES buffer, homogenized in a polytron homogenizer and centrifuged at 3000×g for 10 min. The supernatant is then subjected to an additional 100,000 g centifugation for 1 hour. The pellet and the floating layer of lipid are discarded and the supernatant, referred to as the chick liver S100 fraction, is retained for binding assays. After estimating the protein concentration, the supernatant (S100) is aliquoted and frozen at -80° C.
(§1) Each assay tube contains a final volume of 1 ml with 1.3 ng/ml of ^3 H-N-desmethoxyapicidin, 150-200 μg of the appropriate S100 supernatant and concentrations of potential HDA inhibitors from 0.001-10 μg/ml.
(§2) (i) labeled substrate. 2-^3 H-N-desmethoxyapicidin (18.69 mCi/mg) is diluted 1:100 in ethanol, and 2 μl added per 1 ml of 50 mM HEPES pH 7.4 with 0.05% Triton®-X100 (HEPES/Triton) is added. This provides 1.3 ng 2-^3 H-N-desmethoxyapicidin /ml of assay (54,000 DPM/ml.)
(§3) (ii) potential HDA inhibitors. The stocks of the test compounds are made up to 2 mg/ml dimethylsulfoxide (DMSO). The stock solution is diluted to 1000, 100, 10, 1 and 0.1 μg/ml in ethanol where a full titration is required. Ethanol is used as a negative control, a 100 μg/ml solution of unlabeled N-desmethoxyapicidin is used as a positive control. Six μl of the test compound solution, the positive and negative controls are used for the assay.
(§4) (iii) supernatant from (a). The S100 sample is diluted to a concentration of 3.0 mg protein/ml (chick liver) or 4 mg protein/ml (parasite) in the HEPES/Triton® buffer. Fifty μl is used for the assay.
(§5) Stock solutions of potential HDA inhibitors (ii) are diluted into 50 mM HEPES/Triton® buffer to achieve a final concentration of test compound in the range of […]. ^3 H-N-desmethoxyapicidin is added to a final concentration of 1.3 ng/ml. 50 μl of parasite or chick liver S100 solution (150-200 μg) is added to each tube. The assay mixture is incubated for 1 hr at 25° C. and then aspirated through Whatman GF/B filters impregnated with polyethylenimine (filters prepared in advance by soaking in 2 ml of polyethylenimine per 330 mls water at room temp for 1 hour). Assay tubes were rinsed 3 times with 1-2 mls of HEPES/Triton® and aspirated through the same filter. The filter is then dried and counted in scintillant.

[2] = test system: histone deacetylase (E. tenella oocyst S100 lysate); assay: Competitive binding assay with 3H-N-desmethoxyapicidin, E. tenella S100 lysate; conditions: for selectivity for E. tenella over chicken liver lysate in binding assay: E. tenella versus host (chicken liver) lysate
Protocol: E. tenella oocysts. Approximately 2×10^9 E. Tenella oocysts are suspended in 5 ml of PBS/0.1 mM PMSF, 4 mls of an equal mixture (vol/vol) of 4.0 and 1.0 mm glass beads is added. The glass bead-oocyst mixture is then shaken for 20 minutes to cause disruption of the oocysts. The efficiency of breakage is checked microscopically. The resulting homogenate is separated from the glass beads and centrifuged at 3000×g for 10 min. The supernatant is then subjected to an additional centrifugation at 100,000 g for 1 hr. The pellet is discarded and the supernatant, referred to as the E. Tenella S100 fraction, is retained for binding assays. After estimating the protein concentration, the supernatant (S100) is aliquoted and frozen at -80° C.
as §1, §2, §3, §4, §5

HeLa cell histones = assay: Histone acetylation state in HeLa cells (AUT gel electrophoresis); format: cell-based, human; conditions: HeLa cells treated 4 hrs, FIG. 1, relative to untreated cells
Protocol: About 2×10^7 HeLa cells growing at 37 C were treated with various compounds in the standard tissue culture medium (MEM containing 10% fetal calf serum) for 4 hrs. Cells were then removed from the flask by scraping in PBS in a total volume of about 10 mls. The cells were washed twice in PBS and resuspended in about 3 mls lysis buffer (Lysis buffer; 0.45% Nonidet® P-40, 10 mM tris, 10 mM NaCl, 5 mM MgCl, 0.1 mM EGTA, 0.1 mM PMSF). The suspension was mixed by vortexing for 10 seconds, incubated on ice for 15 minutes and nuclei were pelleted by centrifugation through a 1 ml cushion of 30% sucrose in lysis buffer at 1300×g for 10 minutes. The supernatant was discarded and the nuclei were then resuspended in 1.0 ml water. H2 SO4 was added to a final concentration of 0.4M and the nuclear suspension was incubated on ice for 30 min. and then pelleted by centrifugation at 13,000×g for 10 miunutes. […]
Acid urea triton (AUT) polyacrylarnide gels were performed according to the methods of Alfageme et al (1974) J. Biol. Chem. 249, 3729, with modifications as described in Lennox and Cohen (Methods in Enzymology, 170, 532-549). […] Gels were either stained with Coomassie Brilliant Blue R in 7% acetic acid, 20% methanol and then destained in 7% acetic acid and 20% methanol, or treated with Enlightening (from New England Nuclear), dried and radiolabel detected by fluorography.

P. falciparum histones = assay: Histone acetylation state in P. falciparum (14C acetate labeling, AUT gel); format: cell-based, Plasmodium falciparum; conditions: infected red blood cells, 14C sodium acetate, 2 hours, FIG. 2
Protocol: Acid urea triton (AUT) polyacrylarnide gels were performed according to the methods of Alfageme et al (1974) J. Biol. Chem. 249, 3729, with modifications as described in Lennox and Cohen (Methods in Enzymology, 170, 532-549). For optimal resolution of HeLa cell and Plasmodium falciparum histones the separation gel contained 7.5M urea, 12% acrylamide, 0.38% Triton® X 100, 0.08% bis acrylamide, and 0.87M acetic acid. The loading gels contained 7.5M urea, 0.37% Triton® X 100, 6% acrylamide, 0.04% bis acrylamide and 0.87M acetic acid. Gels were run in 1M acetic acid. Gels were pre-electrophoresed at 350V for 1 hour and run at 450 V for 3.5 hours. Gels were either stained with Coomassie Brilliant Blue R in 7% acetic acid, 20% methanol and then destained in 7% acetic acid and 20% methanol, or treated with Enlightening (from New England Nuclear), dried and radiolabel detected by fluorography.
Approximately 1×10^9 P. falciparum infected red blood cells (about 60% parasitized) were resuspended in 10 ml of RPMI 1640 containing various concentrations of test compounds and 250 μCi^14 C sodium acetate and incubated at 37° C. for 2 hours. The cells were then washed 3 time with PBS and histones were prepared as described below.
Histones were prepared according to the method of Cary et al (1994) Parasitology Research, 80, 255-258. […]

E. tenella = assay: In vitro antiparasitic activity against E. tenella; format: cell-based, Eimeria tenella
From the text: ^(1) Generally following the procedure described in Crane, Schmatz, Stevens, Habbersett and Murray. Eimeria tenella: in vitro development in irradiated bovine kidney cells.(1984) Parasitology 88: 521-530.

P. falciparum = assay: In vitro antiparasitic activity against P. falciparum; format: cell-based, Plasmodium falciparum
From the text: ^(2) Generally following the procedure described in Desjardins et al, "Quantitative Assessment of Antimalarial Activity In Vitro by a Semiautomated Microdilution Technique" Antimicrobial Agents and Chemotherapy, 1979, 16:710-718.

[3] = test system: histone deacetylase (chicken liver extracts); assay: Histone deacetylase inhibition assay (Assay 1), chicken liver extract; format: biochemical
Protocol: (§6) The standard assay contained in a total volume of 40 μL: 400 nmol HEPES-sodium, pH 7.4, 100 pmol of the substrate [AcGly-Ala-Lys(ε-^14 C-Ac)-Arg-His-Arg-Lys(ε-^14 C-Ac)-ValNH2 ] (see Kervabon et al (1979) FEBS Letters 106: 93-96) having a specific activity of approx. 114 mCi/mmol, and a source of histone deacetylase (HDAase) activity. The amount of HDAase added was chosen such that ≤20% of the substrate was consumed during the assay. The reaction was initiated by enzyme addition and allowed to proceed for 60 min at 41°. At 60 min, the reaction was terminated by the addition of a 50% slurry of Amberlite AG 50 W×4 cation exchange resin, sodium form (200-400 mesh) in 25 mM sodium acetate buffer, pH 4.2 (200 μL). The resin binds both remaining substrate and the (partially) deacetylated peptidyl products. The quenched reaction was then incubated for at least 30 min at 25° with occassional mixing, diluted with additional 25 mM sodium acetate buffer, pH 4.2 (760 μL; final volume 1000 μL), incubated for a minimum of an additional 30 min at 25° with occassional mixing, and then centrifuged at 10,000×g for 1 min. An aliquot of the supernatant (800 μL) containing the enzymatically released ^14 C-acetate was removed, mixed with Aquasol 2 liquid scintillation counter (LSC) cocktail (10 mL), and counted in a Beckman model LS-5801 LSC. […]

[4] = test system: Eimeria HDAase (histone deacetylase); assay: Histone deacetylase inhibition assay (Assay 1), E. tenella extract; format: biochemical, Eimeria tenella
Protocol: as §6

| SMILES | IC50 [1] | selectivity for E. tenella over chicken liver lysate in binding assay [2] | hyperacetylation of HeLa cell histones (shift in histone gel profile) (HeLa cell histones) | hyperacetylation of P. falciparum histones (P. falciparum histones) | other results |
| --- | --- | --- | --- | --- | --- |
| CCC(=O)CCCCC[C@@H]1NC(=O)[C@H]2CCCCN2C(=O)[C@H](C(C)CC)NC(=O)[C@H](c2cn(OC)c3ccccc3c2=O)NC1=O (stereo partly shown) [Compound IIA] | > 1 µM | selective |  |  |  |
| CCC(=O)CCCCC[C@@H]1NC(=O)[C@H]2CCCCN2C(=O)[C@H](C(C)CC)NC(=O)[C@H](c2c[nH]c3ccccc3c2=O)NC1=O (stereo partly shown) [Compound IIB] | > 1 µM | selective |  |  |  |
| CCC(=O)CCCCC[C@@H]1NC(=O)[C@H]2CCCCN2C(=O)[C@H]([C@@H](C)CC)NC(=O)[C@H](Cc2cn(OC)c3ccccc23)NC1=O [Compound Ia, Apicidin] |  |  | cause a distinct shift in the histone gel profiles | cause hyperacetylation |  |
| CC(/C=C/C(=O)O)=C\[C@@H](C)C(=O)c1ccc(N(C)C)cc1 [trichostatic acid] | > 1 µM |  |  |  | activity in binding assay (in words), chicken liver lysate [1]: no activity; activity against E. tenella (in words) (E. tenella): not active; activity against P. falciparum (in words) (P. falciparum): not active; activity in binding assay (in words), E. tenella lysate [2]: no activity; IC50 ([2]; displacement of 3H-N-desmethoxyapicidin, E. tenella S100): > 1 µM; activity in enzyme inhibition assay (in words), chicken liver extract [3]: inactive; activity in enzyme inhibition assay (in words), E. tenella extract [4]: inactive |
| CC(/C=C/C(=O)NO)=C\[C@@H](C)C(=O)c1ccc(N(C)C)cc1 [trichostatin] |  |  | cause a distinct shift in the histone gel profiles | cause hyperacetylation |  |
